# Measurements from patent US20220133846A1, “NOVEL ANTIMICROBIAL COMPOUND AND USES THEREOF” (priority 2019, published 2022).
# Where two headings read alike, the source gives them in different places.
# Experiments:
# MDR S. aureus (CH-11) = assay: Frequency of resistance (FoR) in vitro; type: cell-based
# S. aureus (ATCC #29213) = type: cell-based
# [1] = tested on: Staphylococcus genus clinical strain CH-16 (16S ID n/a); assay: microbe, parasite or virus in culture; type: cell-based; conditions: clinical strain CH-16, drug resistance Y
# [2] = tested on: Staphylococcus aureus strain NBRC 100910; assay: MIC against clinical isolates (Christiana Hospital); type: cell-based
# [3] = tested on: Staphylococcus haemolyticus strain JCM 2416; assay: microbe, parasite or virus in culture; conditions: JCM2416
smiles,measurement,setting,value
COc1cccc(OC)c1C(=O)N[C@@H]1C(=O)N2[C@@H]1SC(C)(C)[C@@H]2C(=O)O [Methicillin],Frequency of resistance (FoR),MDR S. aureus (CH-11); 2X MIC,resistant
same,Frequency of resistance (FoR),MDR S. aureus (CH-11); 3X MIC,resistant
same,Frequency of resistance (FoR),MDR S. aureus (CH-11); 4X MIC,resistant
same,Frequency of resistance (FoR),MDR S. aureus (CH-11); 5X MIC,resistant
same,Frequency of resistance (FoR),MDR S. aureus (CH-11); 10X MIC,resistant
same,Frequency of resistance (FoR),S. aureus (ATCC #29213); 2X MIC,<3.72 × 10^−10
same,Frequency of resistance (FoR),S. aureus (ATCC #29213); 3X MIC,<3.72 × 10^−10
same,Frequency of resistance (FoR),S. aureus (ATCC #29213); 4X MIC,<3.72 × 10^−10
same,Frequency of resistance (FoR),S. aureus (ATCC #29213); 5X MIC,<3.72 × 10^−10
same,Frequency of resistance (FoR),S. aureus (ATCC #29213); 10X MIC,<3.72 × 10^−10
same,MIC,[1],64 µg/mL
same,MIC,"[2]; NBRC100910, clinical strain CH-01, drug resistance N",1 µg/mL
same,MIC,"[2]; NBRC100910, clinical strain CH-02, drug resistance N",1 µg/mL
same,MIC,"[2]; NBRC100910, clinical strain CH-03, drug resistance N",1 µg/mL
same,MIC,"[2]; NBRC100910, clinical strain CH-04, drug resistance N",2 µg/mL
same,MIC,"[2]; NBRC100910, clinical strain CH-05, drug resistance N",1 µg/mL
same,MIC,"[2]; NBRC100910, clinical strain CH-06, drug resistance N",1 µg/mL
same,MIC,"[2]; NBRC100910, clinical strain CH-07, drug resistance N",1 µg/mL
same,MIC,"[2]; NBRC100910, clinical strain CH-08, drug resistance N",1 µg/mL
same,MIC,"[2]; NBRC100910, clinical strain CH-09, drug resistance N",8 µg/mL
same,MIC,"[2]; NBRC100910, clinical strain CH-10, drug resistance N",1 µg/mL
same,MIC,"[2]; NBRC100910, clinical strain CH-11, drug resistance Y",32 µg/mL
same,MIC,"[2]; NBRC100910, clinical strain CH-12, drug resistance Y",16 µg/mL
same,MIC,"[2]; NBRC100910, clinical strain CH-13, drug resistance Y",> 64 µg/mL
same,MIC,"[2]; NBRC100910, clinical strain CH-14, drug resistance Y",> 64 µg/mL
same,MIC,"[2]; NBRC100910, clinical strain CH-15, drug resistance Y",> 64 µg/mL
same,MIC,"[2]; NBRC100910, clinical strain CH-17, drug resistance Y",16 µg/mL
same,MIC,"[2]; NBRC100910, clinical strain CH-20, drug resistance Y",4 µg/mL
same,MIC,[3],8 µg/mL
